Data set [1] relates to HUVECs. As to the kind of experiment: Reoxygenation of hypoxic HUVECs (flow cytometry, BioTracker 520 green hypoxia dye). The note with it: HUVECs under hypoxia (1%). The class given is cell-based. As for the experimental part:
The % P02 was assessed based on the readout of the BioTracker 520 green hypoxia dye. (FIG. 1G) Quantification of % P02 based on the flow cytometric data. (FIG. 1H) Quantification of % P02 based on the flow cytometric data of HUVECs incubated with 120 μg/mL LEAF-4L121 over time and (FIG. 11) as a function of various concentrations of LEAF-4L121 at 24 h.
In vitro, we first sought to evaluate the reoxygenation properties of LEAF-4L121 in endothelial cells (HUVECs). The IC50 of LEAF-4L121 in HUVECs was determined after 72 h of treatment by viability assays (CellTiter-Glo, Promega). […] We next incubated HUVECs in hypoxic conditions (1% P02) for 24 h before treatment with either free TC or various concentrations of LEAF-4L121. […] This rapid oxygenation effect of LEAF-4L121 is likely attributed to a biphasic release of TC from the liposomes that includes an initial fast release (approx. 25% in the first 6 h) of some of the payload followed by a more sustained release of TC from the liposomes over a prolonged period.
(In flow cytometry, cells or beads pass a laser one at a time.)

Data set [2] relates to mouse model of sepsis. The note with it: in vitro results and mouse model of sepsis.
Data set [3] is described as follows: Phase 2 clinical study of liposomal trans-crocetin: pharmacokinetics. The note with it: across different dosing regimens.
For data set [4] the following is noted: mouse, in vivo. On the procedure:
The clinical development of trans-crocetin has been problematic because its oxygen diffusion enhancing effect is transient, due to two key factors. Poor solubility: trans-crocetinate monovalent metal salts such as TSC, as free drugs were designed presumably to overcome the solubility issue associated with crocetin (free acid). Short half-life: TSC half-life is approximately 30 minutes, which in a clinical setting leads to transient effect on oxygen diffusion enhancement.

For data set [5] the following is noted: in vivo; cited from earlier work.
For data set [6] the following is noted: human, in vivo; cited from earlier work.

Here are results for two molecules from US20250064768A1, “METHODS AND COMPOSITIONS FOR TREATING AGING AND CHRONIC DISEASE” (priority 2021, published 2025).

`CC(/C=C/C=C(\C)C(=O)O)=C\C=C\C=C(C)\C=C\C=C(/C)C(=O)O` [TC, trans-crocetin]: the “reoxygenation, PO2” value was “up to 15 % PO2” in data set [1] (30 min post-treatment, 5 μg/mL TC) and 5 % P02 in data set [1] (3 h after treatment). Also, the reoxygenation activity entry in data set [2] is “demonstrated the reoxygenation activity”. Besides, in data set [3], the “AUC and Cmax versus body weight” value is “stable levels of AUC and Cmax across a wide range of body weights”.

Regarding `CC(/C=C/C=C(\C)C(=O)[O-])=C\C=C\C=C(C)\C=C\C=C(/C)C(=O)[O-].[Na+].[Na+]` [TSC, trans sodium crocetinate], in data set [4], the “half-life (t½)” value is “half an hour”. The half-life entry in data set [5] is on record as “approximately 30 minutes”. In addition, the “safety in clinical trials” value in data set [6] was “no safety concerns”.
